How the values were obtained:
[1] = Stability of crystalline form A to relative humidity; type: physicochemical; conditions: 15% relative humidity (RH) at 25° C.; anhydrous crystalline form A
Procedure: (§1) Crystalline form A of TH-302 is anhydrous which is stable to 15% relative humidity (RH) at 25° C. No change in the chemical purity of TH-302 was observed after one week when in accelerated stability tests at high temperature (40° C.) and high relative humidity (75% RH). An improvement in the physical appearance of a dosage form of a drug enhances both physician and patient acceptance and increases the likelihood of success of the treatment.

[2] = Accelerated stability test at high temperature and high relative humidity; type: physicochemical; conditions: 40° C., 75% RH, after one week
Procedure: as §1

## Cn1c(COP(=O)(NCCBr)NCCBr)cnc1[N+](=O)[O-] [TH-302, N,N′-Bis(2-bromoethyl)phosphorodiamidic acid (1-methyl-2-nitro-1H-imidazol-5-yl)methyl ester]
[1]
  stability to relative humidity: stable
[2]
  change in the chemical purity: No change

— patent US10654876B2, “TH-302 solid forms and methods related thereto” (Molecular Templates, Inc., priority 2014, dated 2020)
